Values quoted from earlier work as cited in patent US20110064803A1, “NANOPARTICULATE AND CONTROLLED RELEASE COMPOSITIONS COMPRISING VITAMIN K2” (ELAN PHARMA INTERNATIONAL LIMITED., priority 2005, published 2011).
Where two headings read alike, the source gives them in different places.

Tests used:
[1] = oral
[2] = not given; remark: listed apart in the source

**Q.** Which results are given for `COC(=O)C(c1ccccc1)C1CCCCN1` (stereo not drawn) [methylphenidate, α-phenyl-2-piperidine acetic acid methyl ester]?
**A.** Persistence of drug effects ([1]; conventional IR tablets): 3 to 6 h; Persistence of drug effects ([1]; extended release formulations): up to 8 hours

**Q.** Which Stability to light does the source give for `CC(C)=CCC/C(C)=C/CC/C(C)=C/CC/C(C)=C/CC1=C(C)C(=O)c2ccccc2C1=O` [Vitamin K2] here?
**A.** decomposes and the color becomes more intense by light

**Q.** And the “Solubility in ethanol (99.5)” value ([2]; ethanol (99.5))?
**A.** soluble

**Q.** What about the Solubility in hexane ([2]; hexane) of the same molecule?
**A.** very soluble

**Q.** And the Solubility in methanol ([2]; methanol)?
**A.** slightly soluble

**Q.** And the Solubility in water ([2]; water)?
**A.** practically insoluble
